Laboratory results: ChEMBL document CHEMBL5223133, “A review of MMP-2 structures and binding mode analysis of its inhibitors to strategize structure-based drug design” (Bioorg Med Chem, 2022)
Values belong to the compound of their own block, whether it stands above or below them. Activity calls are given as the source filed them. The calls are words filed in the database; no cut-off is given here.

Assays:
[1] = biological target: Matrix metalloproteinase-9 (Homo sapiens) (UniProt P14780); assay: Inhibition of MMP9 (unknown origin) gelatinase activity at 5 to 20 uM incubated for 24 hrs by modified zymography assay; details: dose 5-20 µM
Chain of Matrix metalloproteinase-9 (Homo sapiens) (P14780 whole entry): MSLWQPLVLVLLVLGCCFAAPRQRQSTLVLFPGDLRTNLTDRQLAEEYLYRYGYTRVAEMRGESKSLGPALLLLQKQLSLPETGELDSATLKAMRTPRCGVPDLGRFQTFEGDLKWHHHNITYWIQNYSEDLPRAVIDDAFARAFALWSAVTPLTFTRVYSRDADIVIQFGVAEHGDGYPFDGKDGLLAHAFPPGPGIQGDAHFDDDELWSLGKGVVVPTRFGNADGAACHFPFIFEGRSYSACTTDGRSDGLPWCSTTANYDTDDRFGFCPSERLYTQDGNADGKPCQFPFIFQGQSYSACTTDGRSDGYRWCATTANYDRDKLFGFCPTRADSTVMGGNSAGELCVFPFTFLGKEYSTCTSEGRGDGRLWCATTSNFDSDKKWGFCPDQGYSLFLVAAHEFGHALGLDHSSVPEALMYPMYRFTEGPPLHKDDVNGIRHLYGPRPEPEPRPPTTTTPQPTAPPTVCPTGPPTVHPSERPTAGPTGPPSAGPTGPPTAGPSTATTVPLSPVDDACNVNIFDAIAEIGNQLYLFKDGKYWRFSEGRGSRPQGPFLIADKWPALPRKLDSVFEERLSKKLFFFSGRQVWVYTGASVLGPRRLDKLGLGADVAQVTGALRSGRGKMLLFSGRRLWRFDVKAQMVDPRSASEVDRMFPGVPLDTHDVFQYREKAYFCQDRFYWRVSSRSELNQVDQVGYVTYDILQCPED

[2] = biological target: T1, 72 kDa type IV collagenase (Homo sapiens, UniProt P08253); assay: Inhibition of MMP2 (unknown origin) gelatinase activity at >= 7.5 uM incubated for 24 hrs by modified zymography assay
Target sequence in this assay (P08253 110-660 limits assumed): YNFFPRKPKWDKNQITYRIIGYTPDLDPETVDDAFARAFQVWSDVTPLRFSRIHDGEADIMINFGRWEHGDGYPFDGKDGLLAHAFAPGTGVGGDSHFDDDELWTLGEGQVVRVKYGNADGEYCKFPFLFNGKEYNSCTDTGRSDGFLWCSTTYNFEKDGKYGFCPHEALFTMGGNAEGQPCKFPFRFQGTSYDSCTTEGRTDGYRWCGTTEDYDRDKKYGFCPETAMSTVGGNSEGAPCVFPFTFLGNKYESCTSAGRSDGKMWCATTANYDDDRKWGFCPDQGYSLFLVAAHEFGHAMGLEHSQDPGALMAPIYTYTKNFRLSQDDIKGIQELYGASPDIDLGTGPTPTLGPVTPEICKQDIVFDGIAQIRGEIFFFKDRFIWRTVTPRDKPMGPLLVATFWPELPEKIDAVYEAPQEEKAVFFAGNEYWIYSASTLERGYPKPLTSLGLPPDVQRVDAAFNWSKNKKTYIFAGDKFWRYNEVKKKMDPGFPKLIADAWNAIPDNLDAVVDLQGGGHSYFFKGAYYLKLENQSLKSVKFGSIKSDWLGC

[3] = biological target: Matrix metalloproteinase-9 (Homo sapiens) (UniProt P14780); assay: Inhibition of MMP9 (unknown origin) gelatinase activity at >= 7.5 uM incubated for 24 hrs by modified zymography assay
[4] = biological target: T1, 72 kDa type IV collagenase; assay: Inhibition of MMP2 (unknown origin) gelatinase activity at 5 to 20 uM incubated for 24 hrs by modified zymography assay; details: dose 5-20 µM
Target sequence in this assay (P08253 110-660 limits assumed): as above

[5] = biological target: T1, 72 kDa type IV collagenase; assay: Inhibition of MMP2 (unknown origin)
Target sequence in this assay (P08253 whole entry): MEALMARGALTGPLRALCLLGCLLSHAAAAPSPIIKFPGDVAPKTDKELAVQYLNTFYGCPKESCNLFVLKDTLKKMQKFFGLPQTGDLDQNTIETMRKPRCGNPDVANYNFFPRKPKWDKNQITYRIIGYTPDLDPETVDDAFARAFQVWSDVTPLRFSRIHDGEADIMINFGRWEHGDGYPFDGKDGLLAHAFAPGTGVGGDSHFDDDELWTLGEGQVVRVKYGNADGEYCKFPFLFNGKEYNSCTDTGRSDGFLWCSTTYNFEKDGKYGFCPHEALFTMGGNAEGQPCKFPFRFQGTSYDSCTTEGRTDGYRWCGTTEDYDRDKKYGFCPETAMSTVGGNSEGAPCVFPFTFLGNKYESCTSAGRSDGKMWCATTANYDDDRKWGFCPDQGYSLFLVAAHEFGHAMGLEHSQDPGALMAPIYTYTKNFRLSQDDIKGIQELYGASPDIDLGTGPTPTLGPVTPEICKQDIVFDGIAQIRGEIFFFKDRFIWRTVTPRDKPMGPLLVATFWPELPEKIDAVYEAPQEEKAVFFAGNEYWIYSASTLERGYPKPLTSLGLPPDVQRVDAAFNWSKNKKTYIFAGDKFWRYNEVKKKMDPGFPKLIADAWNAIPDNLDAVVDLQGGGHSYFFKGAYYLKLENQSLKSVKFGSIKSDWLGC

[6] = biological target: T1, 72 kDa type IV collagenase; assay: Inhibition of human MMP2
Target sequence in this assay (P08253 whole entry): as above

A549 = assay: Anticancer activity against human A549 cells assessed as cell survival measured after 48 hrs by MTT assay; format: functional, cell-based; details: A549, 48 h

inhibition [1]: Active | inhibition [2]: 100% | inhibition [3]: 100% | inhibition [4]: Active
SMILES: c1cc2nc(c1)CNCCNCCNCCNC2

IC50 [5]: 5000 nM
SMILES: O=C(NCc1ccco1)Nc1c[nH]c2cccnc2c1=O

IC50 [5]: 9300 nM
SMILES: Cc1cc(=O)c(O)c(C(=O)NCc2ccc(-c3ccc(C#N)cc3)cc2)o1

inhibition [1]: Active | inhibition [2]: 100% | inhibition [3]: 100% | inhibition [4]: Active
SMILES: c1cc2nc(c1)CNCCNCCCNCCNC2

IC50 [5]: 36 nM
SMILES: CNC(=O)[C@@H](NC(=O)c1ccc(-c2ccc(OCc3ccn[nH]3)cn2)o1)C1CCCCC1

IC50 [6]: 27 nM
SMILES: CCCCCCCC/C=C\CCCCCCCC(=O)NNC(=O)[C@H](Cc1cc2ccccc2[nH]1)NC(=O)[C@@H](CC(=O)NO)CC(C)C

SMILES: O=C(NO)C1CN(C(=O)c2ccccc2)CCCN1C(=O)/C=C/c1ccc(O)c(O)c1 (stereo unspecified)
IC50 (A549): 8200 nM

IC50 [6]: 2000 nM
SMILES: CCCCCCCC/C=C/CCCCCCCC(=O)O [ELAIDIC ACID]

IC50 [5]: 150 nM
SMILES: N#Cc1ccc(Oc2ccc(S(=O)(=O)N3CCc4c([nH]c5ccccc45)C3C(=O)NO)cc2)cc1 (stereo unspecified)

IC50 [5]: 610 nM
SMILES: Cc1cc(=O)c(O)c(C(=O)NCc2ccc(-c3ccccc3)cc2)o1
